Assay results published in US9339543B2, “Pharmaceutical compositions that inhibit disproportionation” (Merck Sharp & Dohme Corp., priority 2011, dated 2016).

How the values were obtained:
[1] = FT-NIR monitoring of loss of HCl salt in stressed pioglitazone HCl binary/acidified compacts; type: physicochemical; details: MgSt and organic acid compacts, 40° C./75% RH open dish
Procedure: (§1) An understanding of pioglitazone HCl salt disproportionation was obtained by studying each excipient individually. All of the API and excipient powders were gravimetrically dispensed into 1-dram glass vials using the Symyx Powdernium powder dispensing robot. Binary mixtures containing 250 mg of pioglitazone HCl salt and approximately 30 mg of the excipients were dispensed to create a 9:1 weight ratio mixture. Pharmaceutically relevant formulation matrix samples, or pseudo formulations, were also prepared. The compact target weight was 280 mg with a final composition of 45% of pioglitazone HCl salt, 25% avicel, 25% mannitol and 5% of the remaining excipients.
(§2) Upon completion of the powder dispensing, the vials were removed from the robot and mixed using a Resodyn Acoustic Mixer (LabRAM). The powders were mixed for 30 seconds at 30% intensity to produce homogeneous mixtures. The powders were then poured from the DRAM vial into a ½ inch die. A single compact from each DRAM vial was manually compressed using a compression force of 2000-3000 lbs and a dwell time of 5 seconds. Compacts were stressed at 40° C./35% RH and 40° C./75% RH. The sample preparation and reference for each compact can be seen in Table 2.
FT-NIR reflectance spectroscopy was used to monitor the loss of HCl salt throughout the binary and pseudo formulation studies. […]

[2] = XRPD of stressed pioglitazone HCl binary/acidified compacts (free base formation); type: physicochemical; details: for Inhibition of disproportionation via acidification (Table 6 and FIGS. 2 and 3): organic acid in a 1:1 weight ratio with the carboxylate excipient, NIR and XRPD; for Inhibition of disproportionation by organic acid (XRPD, FIG. 2): pioglitazone HCl compacts containing MgSt with organic acids, 40° C./75% RH open dish
Procedure: as §1, §2
XRPD spectroscopy was also used to quantify the level of disproportionation in selected stressed samples of pioglitazone HCl. XRPD Spectroscopy is more sensitive to free base than NIR, making it suitable for samples with little or no disproportionation. The XRPD spectra were collected on the Panalytical X'pert Pro diffractometer with Cu Ka1 radition of 1.5406 Å in the transmission mode. The samples were scanned between a two theta range of 4 and 20° at a step size of 0.0167° for one hour at ambient conditions. The tube power used was 45 kV and 40 mA. In the XRPD pattern, the pioglitazone crystalline free base form has four specific peaks at 7.8weak, 9.1strong, 10.3strong and 15.1moderate 2-theta. The pioglitazone HCl form has a doublet peak centered at 8.6 2-theta.

[3] = cited from earlier work
[4] = aqueous; cited from earlier work

O=C(O)/C=C\C(=O)O [Maleic Acid]
Inhibition of disproportionation by organic acid (NIR, Table 6) [1]: could inhibit disproportionation
Inhibition of disproportionation via acidification (Table 6 and FIGS. 2 and 3) [2]: completely inhibited
Inhibition of disproportionation by organic acid (XRPD, FIG. 2) [2]: successfully inhibit disproportionation
pKa Values (second value) [3]: 6.3
Aq. Sol. [4]: 0.78 g/mL

Citric Acid
Inhibition of disproportionation via acidification (Table 6 and FIGS. 2 and 3) [2]: not effective in inhibiting disproportionation
Inhibition of disproportionation by organic acid (XRPD, FIG. 2) [2]: do not effectively inhibit disproportionation
pKa Values (first value) [3]: 3.2
pKa Values (second value) [3]: 4.8
pKa Values (third value) ([3]; third pKa printed in cell): 6.4

O=C(O)C(=O)O [Oxalic Acid]
Inhibition of disproportionation via acidification (Table 6 and FIGS. 2 and 3) [2]: not effective in inhibiting disproportionation
Inhibition of disproportionation by organic acid (XRPD, FIG. 2) [2]: do not effectively inhibit disproportionation
pKa Values (first value) [3]: 1.25
pKa Values (second value) [3]: 4.14
Aq. Sol. [4]: 0.14 g/mL

O=C(O)/C=C/C(=O)O [Fumaric Acid]
Inhibition of disproportionation via acidification (Table 6 and FIGS. 2 and 3) [2]: not effective in inhibiting disproportionation
Inhibition of disproportionation by organic acid (XRPD, FIG. 2) [2]: do not effectively inhibit disproportionation
pKa Values (first value) [3]: 3.0
Aq. Sol. [4]: 0.0063 g/mL

O=C(O)C(O)C(O)C(=O)O (stereo not shown) [Tartaric Acid]
Inhibition of disproportionation by organic acid (NIR, Table 6) [1]: could inhibit disproportionation
Inhibition of disproportionation via acidification (Table 6 and FIGS. 2 and 3) [2]: completely inhibited
Inhibition of disproportionation by organic acid (XRPD, FIG. 2) [2]: successfully inhibit disproportionation
pKa Values (first value) [3]: 3.0
pKa Values (second value) [3]: 4.2
Aq. Sol. [4]: 1.3 g/mL
